Source: BindingDB's records for doi:10.7270/Q2S46Q8P (The Scripps Research Institute Molecular Screening Center, 2007)

Target: T1, 5-hydroxytryptamine receptor 1A (Homo sapiens, UniProt P08908)
T1 sequence (P08908 whole entry): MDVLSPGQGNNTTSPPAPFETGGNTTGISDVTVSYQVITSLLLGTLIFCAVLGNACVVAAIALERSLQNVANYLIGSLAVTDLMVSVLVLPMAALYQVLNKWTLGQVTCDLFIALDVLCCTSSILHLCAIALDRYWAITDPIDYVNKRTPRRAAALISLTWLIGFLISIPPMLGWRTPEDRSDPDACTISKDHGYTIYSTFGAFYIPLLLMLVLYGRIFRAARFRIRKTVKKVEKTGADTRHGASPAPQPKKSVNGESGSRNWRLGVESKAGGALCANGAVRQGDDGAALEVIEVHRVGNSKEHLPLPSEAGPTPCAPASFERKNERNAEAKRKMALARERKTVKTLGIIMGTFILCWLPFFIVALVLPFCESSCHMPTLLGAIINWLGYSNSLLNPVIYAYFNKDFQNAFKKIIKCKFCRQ
Assay: serotonin 1A receptor activation, dose response (AID 718)
Settings: inactive by the depositor's call; pH 7.4; 23 °C

| Structure (SMILES) | IC50 [µM] |
| --- | --- |
| CCCOCCOC(=O)c1[nH]c2c(c1C)C(=O)CC(c1cc(OC)ccc1OC)C2 (configuration not stated) | 40 |
| CC(C)=CCC(C)(C)CNC(=O)NC1CCCCC1 | 40 |
| CCOc1ccc(C2=Nn3c(nnc3-c3ccccc3OC)SC2)cc1 [6-(4-ethoxyphenyl)-3-(2-methoxyphenyl)-7H-[1,2,4]triazolo[3,4-b][1,3,4]thiadiazine] | 25 |
| COc1cc2c(cc1OC)-c1cc(N3CCCc4ccccc43)nc(=O)n1CC2 [2-(3,4-dihydro-2H-quinolin-1-yl)-9,10-dimethoxy-6,7-dihydropyrimido[6,1-a]isoquinolin-4-one] | 25 |
| CN(C)c1nc(OCCNC(=O)COc2ccc(Cl)cc2Cl)nc(N2CCCCC2)n1 [SMR000072558] | 40 |
| COC(=O)Nc1nc2ccc(Sc3ccccc3)cc2[nH]1 [FENBENDAZOLE] | 40 |
| CCCOc1ccc2nc(NC(=O)OC)[nH]c2c1 [SMR000058208] | 40 |

Results, then the compound that gave them:

| IC50 [µM] | Structure (SMILES) |
| --- | --- |
| 40 | COc1ccc(C2N(c3ccc(F)cc3)C(=O)C3CCCN32)cc1 (configuration not stated) [SMR000094164] |
| 10.9 | N#C/C(=C/c1ccc(N2CCCCCC2)o1)c1ccc(F)cc1 [MLS000051438] |
| 40 | CCn1c(=O)c(C(=O)Nc2nc3ccccc3[nH]2)c(O)c2ccccc21 [MLS000027148] |
| 22.2 | CCOc1cccc(-c2nnc3n2N=C(c2cc(OC)ccc2OC)CS3)c1 [MLS000081451] |
| 40 | COCCOC(=O)c1[nH]c2c(c1C)C(=O)CC(c1ccccc1)C2 (configuration not stated) [SMR000025505] |

Same assay, conditions: pH 7.4; 23 °C

| Structure (SMILES) | IC50 [µM] |
| --- | --- |
| Cc1ccc(S(=O)(=O)Nc2cccc3ncccc23)s1 [5-methyl-N-quinolin-5-ylthiophene-2-sulfonamide] | 1.1 |
| OCC12C=CC(O1)c1c2c(O)n(-c2ccc(-c3ccccc3)cc2)c1O (configuration not stated) | 11.6 |
| Cn1c(-c2c(N)n(C3CCCC3)c3nc4ccccc4nc23)nc2ccccc21 [1-cyclopentyl-3-(1-methyl-2-benzimidazolyl)-2-pyrrolo[3,2-b]quinoxalinamine] | 2.38 |
| O=S1(=O)C=C(Sc2nnc(-c3ccccc3)o2)c2ccccc21 | 2.48 |
| COc1ccc(-n2nnnc2S(=O)(=O)CC(=O)N2CCCCC2)cc1 [2-[1-(4-methoxyphenyl)tetrazol-5-yl]sulfonyl-1-piperidin-1-ylethanone] | 2.6 |
| CCN(CC)c1ccc2c(Cl)c(Br)c(=O)oc2c1 | 2.3 |
| COc1cccc(N2CCN(c3ncnc4c3[nH]c3ccccc34)CC2C)c1 (configuration not stated) [4-[4-(3-methoxyphenyl)-3-methyl-1-piperazinyl]-5H-pyrimido[5,4-b]indole] | 3.31 |
| CCC(NC(=O)Nc1nnc(C(F)(F)F)s1)(C(F)(F)F)C(F)(F)F | 6.92 |
| CC(=O)Nc1cc(OC(C)=O)c2nonc2c1OC(C)=O [Acetic acid 7-acetoxy-5-acetylamino-benzo[1,2,5]oxadiazol-4-yl ester] | 1.78 |
| COC(=O)/C(=C1/Oc2cc(C)oc(=O)c2S1)C(F)(F)F [methyl (2E)-3,3,3-tris(fluoranyl)-2-(6-methyl-4-oxidanylidene-[1,3]oxathiolo[4,5-c]pyran-2-ylidene)propanoate] | 1.24 |
| Cc1ccc(-n2nc3c([n+]2[O-])CCc2c-3n[o+]n2[O-])cc1 [7-(4-methylphenyl)-3,6-dioxido-4,5-dihydrotriazolo[4,5-e][2,1,3]benzoxadiazole-3,6-diium] | 3.26 |
| O=C(Nc1ccc(N2CCOCC2)cc1)Nc1ccc2nc(-c3ccco3)c(-c3ccco3)nc2c1 [N-(2,3-di-2-furyl-6-quinoxalinyl)-N'-[4-(4-morpholinyl)phenyl]urea] | 2.29 |
| CCn1nc(-c2ccccc2)nc2c(=O)n(C)c(=O)nc1-2 [1-Ethyl-6-methyl-3-phenyl-1H-pyrimido[5,4-e][1,2,4]triazine-5,7-dione] | 0.581 |
| O=C(Nc1ccc(-c2nc3ncccc3o2)cc1)c1ccc(Br)o1 | 8.32 |
| CCn1nc(-c2cccs2)nc2c(=O)n(C)c(=O)nc1-2 [1-ethyl-6-methyl-3-thiophen-2-yl-pyrimido[5,4-e][1,2,4]triazine-5,7-dione] | 0.421 |
| COc1ccccc1-c1nnc2n1N=C(c1ccc(O)c(O)c1)CS2 [(4E)-4-[3-(2-methoxyphenyl)-5H-[1,2,4]triazolo[3,4-b][1,3,4]thiadiazin-6-ylidene]-2-oxidanyl-cyclohexa-2,5-dien-1-one] | 40 |
| COc1cccc(N2CCN(c3ncnc4c3[nH]c3ccc(F)cc34)CC2C)c1 (configuration not stated) [8-fluoranyl-4-[4-(3-methoxyphenyl)-3-methyl-piperazin-1-yl]-5H-pyrimido[5,4-b]indole] | 0.866 |
| COc1ccc(-c2cc(C(F)(F)F)nc(S(C)(=O)=O)n2)cc1OC [4-(3,4-dimethoxyphenyl)-2-methylsulfonyl-6-(trifluoromethyl)pyrimidine] | 3.59 |
| N#CCCS(=O)(=O)c1nnnn1-c1ccccc1 [3-(1-phenyltetrazol-5-yl)sulfonylpropanenitrile] | 2.9 |

Second part, the compound after the results:

| IC50 [µM] | Structure (SMILES) |
| --- | --- |
| 40 | CCCc1nnc2n1N=C(c1ccc(OC)c(OC)c1)CS2 [SMR000057783] |
| 7.33 | CC(=O)Oc1ccc(-n2c(O)c3c(c2O)C2(C)C=CC3(C)O2)cc1 [MLS000107813] |
| 4.78 | COc1cccc(N2CCN(c3ncnc4c3cnn4-c3ccc(C)cc3C)CC2)c1 [SMR000017007] |
| 40 | COc1ccc(-n2c(O)cc(NCc3ccncc3)c2O)cc1 [MLS000099014] |
| 2.28 | CS(=O)(=O)c1nc(-c2ccccc2)cc(C(F)(F)F)n1 [MLS000044644] |
| 3.3 | CS(=O)(=O)c1nc(-c2ccco2)cc(C(F)(F)F)n1 [MLS000044646] |
| 2.44 | CS(=O)(=O)c1nc(-c2cccs2)cc(C(F)(F)F)n1 [MLS000044645] |
| 40 | COc1cc2c(cc1OC)C1=C(C#N)CC=C(NS(=O)(=O)c3ccccc3)N1CC2 [SMR000092093] |
| 0.823 | COc1cc(NS(=O)(=O)c2ccc(C)cc2)c2ncccc2c1 [SMR000071147] |
| 1.88 | CSc1ccccc1NC=C1C(=O)CC(C)(C)CC1=O [SMR000111352] |
| 4.85 | Clc1ccc(-n2nnnc2Sc2ncnc3sccc23)cc1 [SMR000066808] |
